Source: ChEMBL document CHEMBL4433199, “First-in-class allosteric inhibitors of bacterial IMPDHs” (Eur J Med Chem, 2019)
Activity calls are given as the source filed them. The rule behind the calls is not given here.

How the values were obtained:
[1] = target: T1, Inosine-5'-monophosphate dehydrogenase (Pseudomonas aeruginosa (strain ATCC 15692 / DSM 22644 / CIP 104116 / JCM14847 / LMG 12228 / 1C / PRS 101 / PAO1)) (UniProt Q9HXM5); test: Non-competitive inhibition of Pseudomonas aeruginosa IMPDH using IMP as substrate and NAD+ in presence of ATP incubated for 70 secs
T1 sequence (whole entry): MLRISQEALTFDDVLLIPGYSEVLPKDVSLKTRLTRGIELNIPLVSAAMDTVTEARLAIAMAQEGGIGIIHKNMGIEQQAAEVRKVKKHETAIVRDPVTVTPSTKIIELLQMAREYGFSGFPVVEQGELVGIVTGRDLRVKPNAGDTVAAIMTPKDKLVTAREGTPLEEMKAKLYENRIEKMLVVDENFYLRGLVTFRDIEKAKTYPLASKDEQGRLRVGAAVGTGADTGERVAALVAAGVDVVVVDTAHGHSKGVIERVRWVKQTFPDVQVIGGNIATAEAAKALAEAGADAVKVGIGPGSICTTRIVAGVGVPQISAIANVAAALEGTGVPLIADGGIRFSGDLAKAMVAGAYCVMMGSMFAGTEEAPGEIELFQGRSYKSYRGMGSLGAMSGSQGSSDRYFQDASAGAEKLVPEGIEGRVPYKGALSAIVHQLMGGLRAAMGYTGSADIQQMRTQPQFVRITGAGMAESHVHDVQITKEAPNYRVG

[2] = target: T2, Inosine-5'-monophosphate dehydrogenase (Pseudomonas aeruginosa (strain ATCC 15692 / DSM 22644 / CIP 104116 / JCM14847 / LMG 12228 / 1C / PRS 101 / PAO1), UniProt Q9HXM5); test: Inhibition of Pseudomonas aeruginosa IMPDH using IMP as substrate in the presence of NAD+ incubated for 70 secs
T2 sequence (Q9HXM5 whole entry): T1 sequence (whole entry)

[3] = target: T1, Inosine-5'-monophosphate dehydrogenase (Pseudomonas aeruginosa (strain ATCC 15692 / DSM 22644 / CIP 104116 / JCM14847 / LMG 12228 / 1C / PRS 101 / PAO1)); test: Inhibition of Pseudomonas aeruginosa IMPDH at 43.4 uM using IMP as substrate in the presence of NAD+ incubated for 70 secs relative to control
[4] = target: T1, Inosine-5'-monophosphate dehydrogenase (Pseudomonas aeruginosa (strain ATCC 15692 / DSM 22644 / CIP 104116 / JCM14847 / LMG 12228 / 1C / PRS 101 / PAO1)); test: Inhibition of Pseudomonas aeruginosa IMPDH at 35.1 uM using IMP as substrate in the presence of NAD+ incubated for 70 secs relative to control
[5] = target: T1, Inosine-5'-monophosphate dehydrogenase (Pseudomonas aeruginosa (strain ATCC 15692 / DSM 22644 / CIP 104116 / JCM14847 / LMG 12228 / 1C / PRS 101 / PAO1)); test: Competitive inhibition of Pseudomonas aeruginosa IMPDH using IMP as substrate at varying levels and NAD+ in presence of ATP incubated for 70 secs
[6] = target: T1, Inosine-5'-monophosphate dehydrogenase (Pseudomonas aeruginosa (strain ATCC 15692 / DSM 22644 / CIP 104116 / JCM14847 / LMG 12228 / 1C / PRS 101 / PAO1)); test: Inhibition of Pseudomonas aeruginosa IMPDH assessed as Km for IMP at 20 uM using IMP as substrate in presence of 2 mM NAD+ and 0.2 mM MgATP (reference value: 483 +/- 65 microM)
[7] = target: T1, Inosine-5'-monophosphate dehydrogenase (Pseudomonas aeruginosa (strain ATCC 15692 / DSM 22644 / CIP 104116 / JCM14847 / LMG 12228 / 1C / PRS 101 / PAO1)); test: Inhibition of Pseudomonas aeruginosa IMPDH at 47.2 uM using IMP as substrate in the presence of NAD+ incubated for 70 secs relative to control
[8] = target: T1, Inosine-5'-monophosphate dehydrogenase (Pseudomonas aeruginosa (strain ATCC 15692 / DSM 22644 / CIP 104116 / JCM14847 / LMG 12228 / 1C / PRS 101 / PAO1)); test: Competitive inhibition of Pseudomonas aeruginosa IMPDH using IMP as substrate and NAD+ in presence of varying ATP incubated for 70 secs
[9] = target: T1, Inosine-5'-monophosphate dehydrogenase (Pseudomonas aeruginosa (strain ATCC 15692 / DSM 22644 / CIP 104116 / JCM14847 / LMG 12228 / 1C / PRS 101 / PAO1)); test: Inhibition of Pseudomonas aeruginosa IMPDH at 57.4 uM using IMP as substrate in the presence of NAD+ incubated for 70 secs relative to control
[10] = target: T1, Inosine-5'-monophosphate dehydrogenase (Pseudomonas aeruginosa (strain ATCC 15692 / DSM 22644 / CIP 104116 / JCM14847 / LMG 12228 / 1C / PRS 101 / PAO1)); test: Inhibition of Pseudomonas aeruginosa IMPDH at 42.9 uM using IMP as substrate in the presence of NAD+ incubated for 70 secs relative to control
[11] = target: T1, Inosine-5'-monophosphate dehydrogenase (Pseudomonas aeruginosa (strain ATCC 15692 / DSM 22644 / CIP 104116 / JCM14847 / LMG 12228 / 1C / PRS 101 / PAO1)); test: Inhibition of Pseudomonas aeruginosa IMPDH at 40.7 uM using IMP as substrate in the presence of NAD+ incubated for 70 secs relative to control
[12] = target: T1, Inosine-5'-monophosphate dehydrogenase (Pseudomonas aeruginosa (strain ATCC 15692 / DSM 22644 / CIP 104116 / JCM14847 / LMG 12228 / 1C / PRS 101 / PAO1)); test: Inhibition of Pseudomonas aeruginosa IMPDH at 50.8 uM using IMP as substrate in the presence of NAD+ incubated for 70 secs relative to control
[13] = target: T1, Inosine-5'-monophosphate dehydrogenase (Pseudomonas aeruginosa (strain ATCC 15692 / DSM 22644 / CIP 104116 / JCM14847 / LMG 12228 / 1C / PRS 101 / PAO1)); test: Inhibition of Pseudomonas aeruginosa IMPDH at 55.9 uM using IMP as substrate in the presence of NAD+ incubated for 70 secs relative to control
[14] = target: T1, Inosine-5'-monophosphate dehydrogenase (Pseudomonas aeruginosa (strain ATCC 15692 / DSM 22644 / CIP 104116 / JCM14847 / LMG 12228 / 1C / PRS 101 / PAO1)); test: Inhibition of Pseudomonas aeruginosa IMPDH at 48.2 uM using IMP as substrate in the presence of NAD+ incubated for 70 secs relative to control
[15] = target: T1, Inosine-5'-monophosphate dehydrogenase (Pseudomonas aeruginosa (strain ATCC 15692 / DSM 22644 / CIP 104116 / JCM14847 / LMG 12228 / 1C / PRS 101 / PAO1)); test: Inhibition of Pseudomonas aeruginosa IMPDH at 47.1 uM using IMP as substrate in the presence of NAD+ incubated for 70 secs relative to control
[16] = compound: N#CC1=C(N)Oc2[nH]c(=O)[nH]c(=O)c2C1c1ccc([N+](=O)[O-])cc1; test: (§1) Inhibition of Pseudomonas aeruginosa IMPDH assessed as Vmax for IMP at 10 uM using IMP as substrate in presence of 2 mM NAD+ and 0.2 mM MgATP (reference value: 3.74 +/- 0.22 U/mg)
[17] = compound: CC(=O)Nc1ccc(C2C3=C(Nc4c2c(=O)[nH]c(=O)n4Cc2ccccc2)c2ccccc2C3=O)cc1; test: as §1
[18] = compound: CCOc1ccc(-c2cc(C(=O)O)nc3[nH]nc(-c4ccc(Cl)cc4)c23)cc1; test: (§2) Inhibition of Pseudomonas aeruginosa IMPDH assessed as Vmax for IMP at 20 uM using IMP as substrate in presence of 2 mM NAD+ and 0.2 mM MgATP (reference value: 3.74 +/- 0.22 U/mg)
[19] = compound: CC(=O)N1CCOc2cc(S(=O)(=O)Nc3ccc(F)c(Cl)c3)ccc21; test: as §2

O=C(CCS(=O)(=O)c1ccc2c(c1)SCC(=O)N2)NCCCc1ccccc1
inhibition [1]: Active
IC50 ([2]; read-out: IC50): 3.1 µM
inhibition [3]: 76.7%

Cc1cc2c(C(C)C)c(O)c(O)c(C=O)c2c(O)c1-c1c(C)cc2c(C(C)C)c(O)c(O)c(C=O)c2c1O [GOSSYPOL]
inhibition [4]: 100%
IC50 ([2]; read-out: IC50): 0.9 µM
inhibition [5]: Active

CC(=O)N1CCOc2cc(S(=O)(=O)Nc3ccc(F)c(Cl)c3)ccc21
K0.5 [6]: 747 µM
inhibition [7]: 81.5%
IC50 ([2]; read-out: IC50): 17.1 µM
inhibition [8]: Active

N#CC1=C(N)Oc2[nH]c(=O)[nH]c(=O)c2C1c1ccc(Cl)cc1 (configuration not stated)
IC50 ([2]; read-out: IC50): 4 µM
inhibition [8]: Active
inhibition [9]: 89.3%

CCc1oc2ccccc2c1C(=O)c1cc(Br)c(O)c(Br)c1 [BENZBROMARONE]
IC50 ([2]; read-out: IC50): 55 µM
inhibition [10]: 73.3%

O=C(O)c1cc(-c2cc(Br)ccc2F)c2c(-c3ccc(Cl)cc3)n[nH]c2n1
inhibition [11]: 71.6%
IC50 ([2]; read-out: IC50): 7.4 µM
inhibition [8]: Active

COc1ccccc1-c1noc(CCC(=O)Nc2ccc(Cl)cc2)n1
inhibition [1]: Active
IC50 ([2]; read-out: IC50): 2.6 µM
inhibition [12]: 70.6%

COc1cccc(CNC(=O)Cn2ncc3ccccc32)c1OC
IC50 [2]: Not Active
inhibition [13]: 95.2%

Cc1ccc(-n2c(=O)[nH]cc(C(=O)Nc3ccc(C(C)C)cc3)c2=O)cc1C
IC50 [2]: Not Active
inhibition [14]: 75.4%

CC(=O)Nc1ccc(-c2cc(C(=O)O)nc3[nH]nc(-c4ccc(C)cc4)c23)cc1
IC50 ([2]; read-out: IC50): 23 µM
inhibition [15]: 78.3%
inhibition [8]: Active

B1: Inosine-5'-monophosphate dehydrogenase (Pseudomonas aeruginosa (strain ATCC 15692 / DSM 22644 / CIP 104116 / JCM14847 / LMG 12228 / 1C / PRS 101 / PAO1)), … (protein)
chain: T1 sequence (whole entry)
Vmax [16]: 3.64 U/mg
Vmax [17]: 3.34 U/mg
Vmax [18]: 3.14 U/mg
Vmax [19]: 2.81 U/mg
